Test results taken from ChEMBL document CHEMBL6109114, “Design, synthesis, and biological evaluation of 4-(2-fluorophenoxy)pyridine derivatives as novel FLT3-ITD inhibitors” (Eur J Med Chem, 2025).
Calls of active or inactive are those of the source. The calls are words filed in the database; no cut-off is given here.

Columns and labels:
[1] = biological target: CDK3/Cyclin E (Homo sapiens) (UniProt P24864+Q00526); experiment: Inhibition of human CDK3/CyclinE assessed as remaining activity at 1 uM by Eurofins-DiscoverX assay relative to control; type: protein-complex assay
Chain of CDK3/Cyclin E (Homo sapiens) (P24864 whole entry, looked up): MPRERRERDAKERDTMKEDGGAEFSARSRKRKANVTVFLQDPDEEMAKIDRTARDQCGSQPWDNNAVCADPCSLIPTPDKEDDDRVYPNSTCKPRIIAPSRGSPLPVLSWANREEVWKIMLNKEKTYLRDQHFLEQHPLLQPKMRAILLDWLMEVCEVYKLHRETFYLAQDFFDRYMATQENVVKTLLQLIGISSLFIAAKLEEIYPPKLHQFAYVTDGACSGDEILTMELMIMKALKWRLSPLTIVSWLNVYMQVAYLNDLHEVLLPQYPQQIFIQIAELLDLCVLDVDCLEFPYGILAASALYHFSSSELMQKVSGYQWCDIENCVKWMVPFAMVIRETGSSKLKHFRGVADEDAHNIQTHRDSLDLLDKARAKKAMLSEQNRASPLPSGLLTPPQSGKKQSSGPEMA
Chain of CDK3/Cyclin E (Homo sapiens) (Q00526 whole entry, looked up): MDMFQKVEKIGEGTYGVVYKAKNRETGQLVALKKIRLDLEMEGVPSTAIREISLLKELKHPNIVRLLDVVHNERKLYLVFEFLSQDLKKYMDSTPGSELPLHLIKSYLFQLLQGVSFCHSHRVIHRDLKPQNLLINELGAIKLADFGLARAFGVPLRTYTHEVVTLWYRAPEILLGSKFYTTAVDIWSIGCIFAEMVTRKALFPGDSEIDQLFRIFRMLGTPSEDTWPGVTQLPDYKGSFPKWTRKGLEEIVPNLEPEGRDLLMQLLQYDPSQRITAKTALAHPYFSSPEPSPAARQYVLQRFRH

[2] = biological target: Voltage-gated inwardly rectifying potassium channel KCNH2 (Homo sapiens, UniProt Q12809); experiment: Inhibition of human ERG expressed in CHO cells by Qpatch assay; type: toxicity, cell-based
Chain of Voltage-gated inwardly rectifying potassium channel KCNH2 (Q12809 whole entry): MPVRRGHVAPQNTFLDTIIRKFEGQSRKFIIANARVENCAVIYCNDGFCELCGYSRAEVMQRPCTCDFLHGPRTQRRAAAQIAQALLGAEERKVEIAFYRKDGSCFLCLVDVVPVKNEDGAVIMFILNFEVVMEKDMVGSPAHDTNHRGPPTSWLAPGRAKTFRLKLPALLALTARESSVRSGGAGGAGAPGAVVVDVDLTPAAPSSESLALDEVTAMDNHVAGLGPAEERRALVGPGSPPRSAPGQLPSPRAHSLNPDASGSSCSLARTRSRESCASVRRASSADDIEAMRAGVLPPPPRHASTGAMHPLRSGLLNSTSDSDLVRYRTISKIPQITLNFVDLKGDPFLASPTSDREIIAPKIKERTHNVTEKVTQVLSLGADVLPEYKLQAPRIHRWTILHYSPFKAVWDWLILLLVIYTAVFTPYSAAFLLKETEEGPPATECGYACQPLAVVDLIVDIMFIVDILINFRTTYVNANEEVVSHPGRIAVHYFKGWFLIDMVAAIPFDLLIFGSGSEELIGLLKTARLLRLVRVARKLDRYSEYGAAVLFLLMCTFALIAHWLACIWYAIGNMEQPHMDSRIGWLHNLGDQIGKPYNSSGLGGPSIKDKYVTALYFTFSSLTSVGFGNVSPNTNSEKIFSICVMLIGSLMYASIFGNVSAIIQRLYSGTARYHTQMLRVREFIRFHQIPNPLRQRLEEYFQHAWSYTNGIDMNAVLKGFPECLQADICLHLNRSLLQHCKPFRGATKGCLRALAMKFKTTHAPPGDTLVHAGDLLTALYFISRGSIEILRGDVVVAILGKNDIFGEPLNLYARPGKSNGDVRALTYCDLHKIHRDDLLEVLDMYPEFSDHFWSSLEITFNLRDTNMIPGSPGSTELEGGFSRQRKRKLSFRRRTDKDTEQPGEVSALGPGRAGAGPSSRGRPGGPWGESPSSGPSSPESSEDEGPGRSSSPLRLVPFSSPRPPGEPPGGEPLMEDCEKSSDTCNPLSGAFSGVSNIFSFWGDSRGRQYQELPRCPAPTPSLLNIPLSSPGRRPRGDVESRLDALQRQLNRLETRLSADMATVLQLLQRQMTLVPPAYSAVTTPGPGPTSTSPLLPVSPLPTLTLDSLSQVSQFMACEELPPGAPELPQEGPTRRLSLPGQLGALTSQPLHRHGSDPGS

[3] = system: MOLM-13; experiment: Induction of apoptosis in human MOLM-13 cells assessed as late apoptotic cells at 0.3 uM incubated for 48 hrs by Annexin V-FITC/PI staining based flow cytometry analysis (reference value: 3.10%); type: functional
[4] = system: MOLM-13; experiment: Induction of apoptosis in human MOLM-13 cells assessed as necrotic cells at 0.3 uM incubated for 48 hrs by Annexin V-FITC/PI staining based flow cytometry analysis (reference value: 0.077%); type: functional
[5] = system: MOLM-13; experiment: Induction of cell cycle arrest in human MOLM-13 cells assessed as accumulation of cells at G1 phase at 1 uM incubated for 48 hrs (reference value: 40.3%); type: functional
[6] = system: MOLM-13; experiment: Induction of apoptosis in human MOLM-13 cells assessed as early apoptotic cells at 0.3 uM incubated for 48 hrs by Annexin V-FITC/PI staining based flow cytometry analysis (reference value: 4.93%); type: functional
[7] = MRT (0 to t) in mouse at 10 mg/kg, po; type: ADME, organism-based; settings: in vivo
[8] = Cmax in mouse at 5 mg/kg, iv; type: ADME, organism-based; settings: in vivo
[9] = biological target: CYP2C19 (Homo sapiens, UniProt P33261); experiment: Inhibition of CYP2C19 in human liver microsomes using S-mephenytoin as substrate at 10 uM incubated for 10 mins in presence of NADPH by LC-MS/MS analysis relative to control; type: ADME, Microsome; settings: probe S-mephenytoin
Chain of CYP2C19 (P33261 whole entry): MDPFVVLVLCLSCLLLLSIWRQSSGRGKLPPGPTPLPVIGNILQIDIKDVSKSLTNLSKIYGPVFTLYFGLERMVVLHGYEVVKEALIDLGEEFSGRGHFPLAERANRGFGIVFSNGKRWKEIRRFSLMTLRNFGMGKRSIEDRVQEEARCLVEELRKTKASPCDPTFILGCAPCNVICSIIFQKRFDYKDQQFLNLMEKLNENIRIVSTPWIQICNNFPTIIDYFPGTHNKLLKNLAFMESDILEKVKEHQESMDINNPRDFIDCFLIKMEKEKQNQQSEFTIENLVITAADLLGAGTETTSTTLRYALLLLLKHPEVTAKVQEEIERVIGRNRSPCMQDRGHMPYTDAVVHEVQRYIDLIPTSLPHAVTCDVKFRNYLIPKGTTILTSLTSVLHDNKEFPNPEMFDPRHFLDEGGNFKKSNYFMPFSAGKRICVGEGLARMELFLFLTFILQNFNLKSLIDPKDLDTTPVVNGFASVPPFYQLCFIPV

[10] = biological target: T1, CDK6/cyclin D3 (Homo sapiens) (UniProt P30281+Q00534); experiment: Inhibition of human CDK6/cyclinD3 at 1 uM by Eurofins-DiscoverX assay; type: protein-complex assay
[11] = Oral bioavailability in mouse at 10 mg/kg; type: ADME, organism-based; settings: in vivo
[12] = biological target: Cyclin-dependent kinase 5/CDK5 activator 1 (Homo sapiens) (UniProt Q00535+Q15078); experiment: Inhibition of human CDK5/p25 at 1 uM by Eurofins-DiscoverX assay; type: protein-complex assay
Chain of Cyclin-dependent kinase 5/CDK5 activator 1 (Homo sapiens) (Q00535 whole entry): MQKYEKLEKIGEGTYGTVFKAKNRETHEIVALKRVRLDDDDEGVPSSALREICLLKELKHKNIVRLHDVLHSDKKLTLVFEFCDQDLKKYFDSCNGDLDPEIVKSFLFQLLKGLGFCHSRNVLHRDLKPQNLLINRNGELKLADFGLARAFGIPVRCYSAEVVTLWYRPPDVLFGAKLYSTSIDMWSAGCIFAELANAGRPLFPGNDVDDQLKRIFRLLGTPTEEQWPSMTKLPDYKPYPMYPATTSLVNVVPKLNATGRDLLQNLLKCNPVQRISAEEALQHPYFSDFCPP
Chain of Cyclin-dependent kinase 5/CDK5 activator 1 (Homo sapiens) (Q15078 99-307 partner limits assumed): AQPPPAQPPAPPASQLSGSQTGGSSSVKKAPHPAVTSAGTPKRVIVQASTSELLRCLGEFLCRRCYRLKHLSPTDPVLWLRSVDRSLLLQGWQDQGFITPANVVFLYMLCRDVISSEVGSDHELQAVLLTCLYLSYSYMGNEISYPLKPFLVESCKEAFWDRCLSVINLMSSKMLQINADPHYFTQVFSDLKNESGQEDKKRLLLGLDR

[13] = system: MOLM-13; experiment: Induction of apoptosis in human MOLM-13 cells assessed as late apoptotic cells at 0.1 uM incubated for 48 hrs by Annexin V-FITC/PI staining based flow cytometry analysis (reference value: 3.10%); type: functional
[14] = AUC (0 to infinity) in mouse at 10 mg/kg, po; type: ADME, organism-based; settings: in vivo
[15] = Metabolic stability in Sprague-Dawley rat liver microsomes assessed as intrinsic clearance at 1 uM measured up to 60 mins in presence of NADPH regenerating system by LC-MS/MS analysis; type: ADME, Microsome; settings: read-out: CLH
[16] = Half life in mouse at 5 mg/kg, iv; type: ADME, organism-based; settings: in vivo
[17] = AUC (0 to t) in mouse at 5 mg/kg, iv; type: ADME, organism-based; settings: in vivo
[18] = system: A549; experiment: Antiproliferative activity against non-FLT3 expressing human A549 cells assessed as inhibition of cell growth measured after 3 days by celltiter-glo luminescent cell viability assay; type: functional, cell-based; settings: A549, 72 h
[19] = biological target: Receptor-type tyrosine-protein kinase FLT3 (Homo sapiens, UniProt P36888); experiment: Inhibition of FLT3 (unknown origin) using Fluorescein-Poly GT as substrate preincubated for 10 mins followed by substrate addition and measured after 30 mins in presence of ATP by mobility shift assay
Chain of Receptor-type tyrosine-protein kinase FLT3 (P36888 whole entry): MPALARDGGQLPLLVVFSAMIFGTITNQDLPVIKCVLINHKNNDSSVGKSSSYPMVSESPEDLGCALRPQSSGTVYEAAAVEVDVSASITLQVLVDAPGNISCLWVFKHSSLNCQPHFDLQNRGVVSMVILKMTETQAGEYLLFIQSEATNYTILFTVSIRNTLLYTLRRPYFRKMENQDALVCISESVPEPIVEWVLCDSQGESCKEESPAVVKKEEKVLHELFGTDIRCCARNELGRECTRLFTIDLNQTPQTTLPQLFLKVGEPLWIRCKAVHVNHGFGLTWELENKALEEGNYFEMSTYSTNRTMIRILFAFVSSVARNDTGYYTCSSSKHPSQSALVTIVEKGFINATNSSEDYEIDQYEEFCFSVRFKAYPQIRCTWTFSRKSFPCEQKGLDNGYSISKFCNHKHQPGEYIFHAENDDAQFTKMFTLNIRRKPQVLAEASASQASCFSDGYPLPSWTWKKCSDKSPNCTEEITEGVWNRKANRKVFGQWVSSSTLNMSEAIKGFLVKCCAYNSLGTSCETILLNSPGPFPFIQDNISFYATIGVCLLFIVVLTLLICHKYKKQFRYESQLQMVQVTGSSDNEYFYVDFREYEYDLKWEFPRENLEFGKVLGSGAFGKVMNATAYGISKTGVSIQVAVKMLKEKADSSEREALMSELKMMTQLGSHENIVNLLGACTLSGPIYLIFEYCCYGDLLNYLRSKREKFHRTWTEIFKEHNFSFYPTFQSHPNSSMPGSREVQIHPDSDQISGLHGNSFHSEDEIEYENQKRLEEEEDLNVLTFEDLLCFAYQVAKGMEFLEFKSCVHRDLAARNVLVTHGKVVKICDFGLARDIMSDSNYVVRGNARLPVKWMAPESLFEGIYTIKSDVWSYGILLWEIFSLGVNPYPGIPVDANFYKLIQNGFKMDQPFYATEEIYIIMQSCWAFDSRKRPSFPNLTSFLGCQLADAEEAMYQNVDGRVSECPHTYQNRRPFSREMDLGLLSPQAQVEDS

[20] = system: BaF3; experiment: Antiproliferative activity against mouse BaF3 cells harbouring TEL-FLT3 assessed as inhibition of cell growth measured after 3 days by celltiter-glo luminescent cell viability assay; type: functional, cell-based; settings: BaF3, 72 h
[21] = system: MV4-11; experiment: Antiproliferative activity against human MV4-11 cells harbouring FLT3-ITD assessed as inhibition of cell growth measured after 3 days by celltiter-glo luminescent cell viability assay; type: functional, cell-based; settings: MV4-11, 72 h
[22] = Metabolic stability in human liver microsomes assessed as parent compound remaining at 1 uM measured after 60 mins in presence of NADPH regenerating system by LC-MS/MS analysis; type: ADME, Microsome; settings: read-out: Stability
[23] = system: MOLM-13; experiment: Induction of apoptosis in human MOLM-13 cells assessed as viable cells at 0.3 uM incubated for 48 hrs by Annexin V-FITC/PI staining based flow cytometry analysis (reference value: 91.9%); type: functional; settings: read-out: Activity
[24] = system: MOLM-13; experiment: Induction of apoptosis in human MOLM-13 cells assessed as viable cells at 0.1 uM incubated for 48 hrs by Annexin V-FITC/PI staining based flow cytometry analysis (reference value: 91.9%); type: functional; settings: read-out: Activity
[25] = system: BaF3; experiment: Antiproliferative activity against mouse BaF3 cells harbouring FLT3-ITD-D835Y mutant assessed as inhibition of cell growth measured after 3 days by celltiter-glo luminescent cell viability assay; type: functional, cell-based; settings: BaF3, 72 h
[26] = system: BaF3; experiment: Antiproliferative activity against mouse BaF3 cells harbouring FLT3-ITD assessed as inhibition of cell growth measured after 3 days by celltiter-glo luminescent cell viability assay; type: functional, cell-based; settings: BaF3, 72 h
[27] = system: BaF3; experiment: Antiproliferative activity against wild type mouse BaF3 cells assessed as inhibition of cell growth measured after 3 days by celltiter-glo luminescent cell viability assay; type: functional, cell-based; settings: BaF3, 72 h
[28] = Tmax in mouse at 10 mg/kg, po; type: ADME, organism-based; settings: in vivo
[29] = system: MOLM-13; experiment: Induction of apoptosis in human MOLM-13 cells assessed as viable cells at 1 uM incubated for 48 hrs by Annexin V-FITC/PI staining based flow cytometry analysis (reference value: 91.9%); type: functional; settings: read-out: Activity
[30] = system: HL-60; experiment: Antiproliferative activity against human HL-60 cells harbouring wild type FLT3 assessed as inhibition of cell growth measured after 3 days by celltiter-glo luminescent cell viability assay; type: functional, cell-based; settings: HL-60, 72 h
[31] = system: Jurkat; experiment: Antiproliferative activity against non-FLT3 expressing human Jurkat cells assessed as inhibition of cell growth measured after 3 days by celltiter-glo luminescent cell viability assay; type: functional, cell-based; settings: 72 h
[32] = Volume of distribution in mouse at 5 mg/kg, iv; type: ADME, organism-based; settings: in vivo
[33] = AUC (0 to infinity) in mouse at 5 mg/kg, iv; type: ADME, organism-based; settings: in vivo
[34] = system: BaF3; experiment: Antiproliferative activity against mouse BaF3 cells harbouring TEL-KIT assessed as inhibition of cell growth measured after 3 days by celltiter-glo luminescent cell viability assay; type: functional, cell-based; settings: BaF3, 72 h
[35] = biological target: CDK4/Cyclin D3 (Homo sapiens) (UniProt P11802+P30281); experiment: Inhibition of human CDK4/cyclinD3 at 1 uM by Eurofins-DiscoverX assay; type: protein-complex assay
[36] = Metabolic stability in human liver microsomes assessed as parent compound remaining at 1 uM measured after 60 mins by LC-MS/MS analysis; type: ADME, Microsome; settings: read-out: Stability
[37] = biological target: T1, CDK6/cyclin D3 (Homo sapiens); experiment: Inhibition of human CDK6/cyclinD3 assessed as remaining activity at 1 uM by Eurofins-DiscoverX assay relative to control; type: protein-complex assay
[38] = system: BaF3; experiment: Antiproliferative activity against mouse BaF3 cells harbouring FLT3-ITD-F691L mutant assessed as inhibition of cell growth measured after 3 days by celltiter-glo luminescent cell viability assay; type: functional, cell-based; settings: BaF3, 72 h
[39] = system: BaF3; experiment: Antiproliferative activity against mouse BaF3 cells harbouring VEGFR2 assessed as inhibition of cell growth measured after 3 days by celltiter-glo luminescent cell viability assay; type: functional, cell-based; settings: BaF3, 72 h

For `Cc1cc(=O)n(-c2cc(Cl)ccc2F)nc1C(=O)Nc1ccc(Oc2ccnc(NC(=O)N3CC(O)C3)c2)c(F)c1`, the Activity [1] was 88%, the IC50 [2] was > 30 µM and the Activity [3] was 12.3%. The Activity [4] was 0.068%, the Activity [5] was 78.2% and the Activity [6] was 13.4%. For the same compound, the MRT last [7] was 3.37 h, the Cmax [8] was 443 ng/mL and the inhibition at 10 min, 10 µM [9] was 36.9%. The inhibition [10] was “inactive”, the bioavailability [11] was 32.4% and the inhibition [12] was “inactive”. It also gave an Activity [13] of 3.37%, an AUC(0-inf) [14] of 1430 ng·h/mL and a microsomal CLint at 1 µM [15] of 11.8 µL/min/mg. For the same compound, the half-life [16] was 6.57 h, the AUC(0-t) [17] was 2030 ng·h/mL and the IC50 [18] was > 30 µM. For the same compound, the IC50 [19] was 0.475 µM, the IC50 [20] was 3.69 µM and the IC50 [21] was 0.39 µM. It also gave a remaining at 1 h, 1 µM [22] of 66.3%, a viability at 0.3 µM [23] of 74.2% and a viability at 0.1 µM [24] of 90.6%. The IC50 [25] was 6.6 µM, the IC50 [26] was 0.19 µM and the IC50 [27] was > 10 µM. For the same compound, the Tmax [28] was 1.17 h, the viability at 1 µM [29] was 33.5% and the IC50 [30] was 18.9 µM. For the same compound, the IC50 [31] was > 30 µM, the Vd [32] was 20.9 L/kg and the AUC(0-inf) [33] was 2210 ng·h/mL. For the same compound, the IC50 [34] was > 10 µM, the inhibition [35] was “inactive” and the remaining at 1 h, 1 µM [36] was 99.6%. It also gave an Activity [37] of 88%, an IC50 [38] of 4.9 µM and an IC50 [39] of 0.31 µM.
